Test results: US12643892B2, “Pyridazinone compounds for the treatment of neuromuscular diseases” (Edgewise Therapeutics, Inc., priority 2020, dated 2026)

Target: Skeletal Myofibril ATPase (Rabbit Psoas myofibrils)
Experiment: Skeletal Myofibril ATPase Assay
Format: biochemical
Settings: PK/LDH-coupled NADH absorbance at 340 nm
Experimental: Overview: Myosin ATPase activity was assessed by using a coupled reaction system, in which ADP generated by the myosin ATPase function was coupled to the disappearance of NADH through the pyruvate kinase/lactate dehydrogenase (PK-LDH) system. Myosin ATPase activity produces ADP, which was used as a substrate for PK to produce pyruvate and regenerate ATP. The pyruvate was then used as a substrate by LDH to oxidize NADH to NAD+. The rate of the reaction was monitored through the time-dependent disappearance of NADH using absorbance at 340 nm. Inhibition of ATPase activity by the assayed compounds was indicated by a reduced rate of NADH loss, relative to vehicle-treated controls, over the experimental time window. To assess the selectivity of the assayed compounds for skeletal myofibrils, the compounds were counter-screened in cardiac myofibrils.
Materials: The following stock solutions and reagents were used in the Skeletal Myofibril ATPase Assay:
Stock Solutions of pCa buffer. Combine PIPES, CaCl2, and EGTA solutions with 70 mL of water. Adjust pH to 7.0 and bring final volume to 100 mL.
Buffer A & Buffer B. Buffers were stored on ice until use.
Skeletal Myofibril ATPase Assay Procedure: BSA, ATP, NADH, PEP, and DTT solutions were thawed at room temperature, then transferred to ice. Pellet-frozen myofibrils (approximately twice the required volume) were transferred into a sufficiently large tube and capped. Myofibrils were thawed by rolling in a water bath for approximately 15 min at room temperature and cooled on ice. Buffers A and B were prepared by adjusting volumes as necessary for required number of wells and stored on ice. 0.5 μL of the compounds to be assayed were added into wells of a 384-well plate. Buffers A and B were mixed by inversion immediately prior to use, then 25 μL of each was dispensed using a Multidrop dispenser (Buffer A first, then Buffer B). The absorbance within the wells was measured at 340 nm, using a kinetic protocol in which the wells are read every 1.5-2 min for 1 h. The reaction rate was qualitatively assessed by subtracting the minimum absorbance value from the maximum value for each well, using either the SoftMax Pro plate reader software or a spreadsheet program such as Excel. Using GraphPad Prism 8.0, the data was normalized, with 100% activity defined as the absorbance change in the 1% DMSO vehicle wells and 0% assigned to no change in absorbance over the course of the experiment. The normalized data were fit to a variable-slope four-parameter logistic model, constraining the bottom to be 0 or greater. Compounds of Table 1 to 3 were tested and results of the assay appear in Table 4 herein. A=IC50 is less than or equal to 10 μM; B=IC50 is greater than 10 μM and less than 100 μM; C=IC50 is greater than 100 μM.

Row | Structure (SMILES) | IC50 [µM]
1 | O=c1ccc(-c2cccs2)nn1Cc1cccc(F)c1 [Compound 57, 2-(3-fluorobenzyl)-6-(thiophen-2-yl)pyridazin-3(2H)-one] | 10 to 100
2 | O=c1ccc(-n2cncn2)nn1Cc1csc(Br)c1 [Compound 80, 2-((5-bromothiophen-3-yl)methyl)-6-(1H-1,2,4-triazol-1-yl)pyridazin-3(2H)-one] | 10 to 100
3 | Cc1ccc(-c2ccc(=O)n(CC(=O)NC3CCCCC3)n2)s1 [Compound 44, N-cyclohexyl-2-(3-(5-methylthiophen-2-yl)-6-oxopyridazin-1(6H)-yl)acetamide] | > 100
4 | CCCNC(=O)Cn1nc(-c2nc(-c3cccnc3)no2)ccc1=O [Compound 50, 2-(6-oxo-3-(3-(pyridin-3-yl)-1,2,4-oxadiazol-5-yl)pyridazin-1(6H)-yl)-N-propylacetamide] | 10 to 100
5 | Cc1cccc(-c2noc(-c3ccc(=O)n(Cc4cccnc4C)c3)n2)c1 [Compound 118, 1-((2-methylpyridin-3-yl)methyl)-5-(3-(m-tolyl)-1,2,4-oxadiazol-5-yl)pyridin-2(1H)-one] | > 120
6 | Cc1ccc(-c2ccc(=O)n(CC(=O)N[C@](C)(C#N)C(C)C)n2)s1 [Compound 36, (S)-N-(2-cyano-3-methylbutan-2-yl)-2-(3-(5-methylthiophen-2-yl)-6-oxopyridazin-1(6H)-yl)acetamide] | 10 to 100
7 | O=C(Cn1nc(-c2cccs2)ccc1=O)Nc1ccccc1Cl [Compound 37, N-(2-chlorophenyl)-2-(6-oxo-3-(thiophen-2-yl)pyridazin-1(6H)-yl)acetamide] | 10 to 100
8 | O=c1ccc(-c2nc(-c3cncc(F)c3)no2)cn1Cc1cccnc1 [Compound 108, 5-(3-(5-fluoropyridin-3-yl)-1,2,4-oxadiazol-5-yl)-1-(pyridin-3-ylmethyl)pyridin-2(1H)-one] | 10 to 100
9 | COc1ccc(NC(=O)Cn2nc(-c3cccs3)ccc2=O)cc1 [Compound 45, N-(4-methoxyphenyl)-2-(6-oxo-3-(thiophen-2-yl)pyridazin-1(6H)-yl)acetamide] | 10 to 100
10 | Cc1ccc(-c2ccc(=O)n(CC(=O)NCc3ccccc3)n2)s1 [Compound 35, N-benzyl-2-(3-(5-methylthiophen-2-yl)-6-oxopyridazin-1(6H)-yl)acetamide] | 10 to 100
11 | CCNC(=O)Cn1nc(-c2nc(-c3cccnc3)no2)ccc1=O [Compound 13, N-ethyl-2-(6-oxo-3-(3-(pyridin-3-yl)-1,2,4-oxadiazol-5-yl)pyridazin-1(6H)-yl)acetamide] | 10 to 100
12 | O=C(Cn1nc(-c2cccs2)ccc1=O)Nc1ccc(Cl)cc1Cl [Compound 42, N-(2,4-dichlorophenyl)-2-(6-oxo-3-(thiophen-2-yl)pyridazin-1(6H)-yl)acetamide] | > 100
13 | O=c1ccc(-n2cncn2)nn1Cc1ccc(Cl)cc1 [Compound 79, 2-(4-chlorobenzyl)-6-(1H-1,2,4-triazol-1-yl)pyridazin-3(2H)-one] | 10 to 100
14 | CCCCn1nc(-c2nc(-c3ccc(F)cc3)no2)ccc1=O [Compound 76, 2-butyl-6-(3-(4-fluorophenyl)-1,2,4-oxadiazol-5-yl)pyridazin-3(2H)-one] | ≤ 10
15 | COCCn1nc(-c2nc(-c3ccc(F)c(C)c3)no2)ccc1=O [Compound 74, 6-(3-(4-fluoro-3-methylphenyl)-l,2,4-oxadiazol-5-yl)-2-(2-methoxyethyl)pyridazin-3(2H)-one] | 10 to 100
16 | O=c1ccc(-c2nc(-c3cncc(Cl)c3)no2)nn1Cc1cncc(F)c1 [Compound 65, 6-(3-(5-chloropyridin-3-yl)-1,2,4-oxadiazol-5-yl)-2-((5-fluoropyridin-3-yl)methyl)pyridazin-3(2H)-one] | ≤ 10
17 | CC(c1cncc(F)c1)n1cc(-c2nc(-c3cccc(Cl)c3)no2)ccc1=O (centres unmarked) [Compound 117, 5-(3-(3-chlorophenyl)-1,2,4-oxadiazol-5-yl)-1-(1-(5-fluoropyridin-3-yl)ethyl)pyridin-2(1H)-one] | > 120
18 | O=c1ccc(-c2nc(-c3cccc(Cl)c3)no2)cn1Cc1cncnc1 [Compound 85, 5-(3-(3-chlorophenyl)-l,2,4-oxadiazol-5-yl)-1-(pyrimidin-5-ylmethyl)pyridin-2(1H)-one] | ≤ 10
19 | Cc1cccc(-c2noc(-c3ccc(=O)n(Cc4cccnc4)c3)n2)c1 [Compound 94, 1-(pyridin-3-ylmethyl)-5-(3-(m-tolyl)-1,2,4-oxadiazol-5-yl)pyridin-2(1H)-one] | ≤ 10
20 | O=c1ccc(-c2nc(-c3cccc(Cl)c3)no2)cn1Cc1cncc(F)c1 [Compound 86, 5-(3-(3-chlorophenyl)-1,2,4-oxadiazol-5-yl)-1-((5-fluoropyridin-3-yl)methyl)pyridin-2(1H)-one] | ≤ 10
21 | Cc1cccc(-c2noc(-c3ccc(=O)n(Cc4cccnc4)c3)n2)c1 [Compound 84, 1-(pyridin-3-ylmethyl)-5-(3-(m-tolyl)-1,2,4-oxadiazol-5-yl)pyridin-2(1H)-one] | ≤ 10
22 | CC(C)NC(=O)Cn1nc(-c2cccs2)ccc1=O [Compound 49, N-isopropyl-2-(6-oxo-3-(thiophen-2-yl)pyridazin-1(6H)-yl)acetamide] | > 100
23 | Cc1cccc(-c2noc(-c3ccc(=O)n(Cc4cncc(Cl)c4)c3)n2)c1 [Compound 90, 1-((5-chloropyridin-3-yl)methyl)-5-(3-(m-tolyl)-1,2,4-oxadiazol-5-yl)pyridin-2(1H)-one] | ≤ 10
24 | O=c1ccc(-c2cccs2)nn1Cc1cccc(C(F)(F)F)c1 [Compound 59, 6-(thiophen-2-yl)-2-(3-(trifluoromethyl)benzyl)pyridazin-3(2H)-one] | > 100

Next, values leading:

Row | IC50 [µM] | Structure (SMILES)
25 | ≤ 10 | Cc1cccc(-c2noc(-c3ccc(=O)n(Cc4nnc(C)o4)c3)n2)c1 [Compound 100, 1-((5-methyl-1,3,4-oxadiazol-2-yl)methyl)-5-(3-(m-tolyl)-1,2,4-oxadiazol-5-yl)pyridin-2(1H)-one]
26 | ≤ 10 | CCNC(=O)Cn1nc(-c2nc(-c3cncc(Cl)c3)no2)ccc1=O [Compound 12, 2-(3-(3-(5-chloropyridin-3-yl)-1,2,4-oxadiazol-5-yl)-6-oxopyridazin-1(6H)-yl)-N-ethylacetamide]
27 | ≤ 10 | CCNC(=O)Cn1nc(-c2nnc(C34CC(C3)C4)s2)ccc1=O [Compound 32, 2-(3-(5-(bicyclo[1.1.1]pentan-1-yl)-1,3,4-thiadiazol-2-yl)-6-oxopyridazin-1(6H)-yl)-N-ethylacetamide]
28 | ≤ 10 | CCNC(=O)Cn1nc(-c2nc(-c3cccc(F)c3)no2)ccc1=O [Compound 2, N-ethyl-2-(3-(3-(3-fluorophenyl)-1,2,4-oxadiazol-5-yl)-6-oxopyridazin-1(6H)-yl)acetamide]
29 | ≤ 10 | Cc1cccc(-c2noc(-c3ccc(=O)n(Cc4ccc(C)nc4)c3)n2)c1 [Compound 96, 1-((6-methylpyridin-3-yl)methyl)-5-(3-(m-tolyl)-1,2,4-oxadiazol-5-yl)pyridin-2(1H)-one]
30 | ≤ 10 | O=c1ccc(-c2nc(-c3cccc(F)c3)no2)cn1Cc1cccnc1 [Compound 102, 5-(3-(3-fluorophenyl)-1,2,4-oxadiazol-5-yl)-1-(pyridin-3-ylmethyl)pyridin-2(1H)-one]
31 | ≤ 10 | O=C(Cn1nc(-c2nnc(-c3cccc(Cl)c3)s2)ccc1=O)NC1CCC1 [Compound 23, 2-(3-(5-(3-chlorophenyl)-1,3,4-thiadiazol-2-yl)-6-oxopyridazin-1(6H)-yl)-N-cyclobutylacetamide]
32 | ≤ 10 | Cc1ccc(-c2ccc(=O)n(CC(=O)NCc3ccccc3F)n2)s1 [Compound 34, N-(2-fluorobenzyl)-2-(3-(5-methylthiophen-2-yl)-6-oxopyridazin-1(6H)-yl)acetamide]
33 | ≤ 10 | CCNC(=O)Cn1nc(-c2nc(-c3cc(Cl)ccc3F)no2)ccc1=O [Compound 1, 2-(3-(3-(5-chloro-2-fluorophenyl)-1,2,4-oxadiazol-5-yl)-6-oxopyridazin-1(6H)-yl)-N-ethylacetamide]
34 | ≤ 10 | Cc1cncc(Cn2cc(-c3nc(-c4cccc(C)c4)no3)ccc2=O)c1 [Compound 95, 1-((5-methylpyridin-3-yl)methyl)-5-(3-(m-tolyl)-1,2,4-oxadiazol-5-yl)pyridin-2(1H)-one]
35 | ≤ 10 | O=c1ccc(-c2nc(-c3cncc(Cl)c3)no2)nn1Cc1ccccc1 [Compound 66, 2-benzyl-6-(3-(5-chloropyridin-3-yl)-1,2,4-oxadiazol-5-yl)pyridazin-3(2H)-one]
